Laboratory results published in US20040167330A1, “Novel chelating agents and conjugates thereof, their synthesis and use as diagnois and therapeutic agents” (priority 2004, published 2004).
Entries after “also recorded” stand apart in the source; their conditions may differ.

Tests used:
human plasma proteins = test: In vitro binding to human plasma proteins (equilibration dialysis or ultrafiltration); type: in vitro ADME; conditions: 37° C.
Protocol: 3. Determination of the in vitro binding capacity of ^88Y-DO3A-P^BnNH2 complex to human plasma proteins
3. Binding of the 88Y-DO3A-P^BnNH2 complex to human plasma proteins was evaluated at 37° C. using equilibration dialysis or ultrafiltration. 10.2±2.3% or 3.7±3.2% were bound to plasma proteins, respectively. Pharmacokinetically, reversible binding is of no importance.

[1] = Elimination (cumulative excretion of radioactivity) of ^88Y-DO3A-P^BnNH2 complex; type: in vivo; conditions: Wistar SPF rats
Protocol: 2. Determination of elimination (mode and rate) of ^88Y-DO3A-P^BnNH2 complex from the organism
2. Mode and rate of elimination of ^88Y-DO3A-P^BnNH2 complex from the organism as determined by cumulative excretion of radioactivity in intervals of 0-2 h and 0-24 h respectively after intravenous injection of ^88Y-DO3A-P^BnNH2 complex into the vena saphena of Wistar SPF rats are summarized in Table 4.

[2] = Stability of complex in human plasma; type: in vitro ADME; conditions: for High molecular weight form / Low molecular weight form: human plasma, 37° C.
Protocol: 4. Determination of the stability of 88Y-DO3A-P^BnNH2 complex in human plasma
4. Stability of the ^88Y-DO3A-P^BnNH2 complex was determined in human plasma at 37° C. over 14 days using standardised in vitro conditions. […] Dissociation of the radionuclide ^88Y-yttrium from the ^88Y-DO3A-P^BnNH2 complex and binding to plasma proteins (predominantly to complex forming transferrin, a protein which prefers to form complexes with trivalent elements such as Fe^3+, Co^3+ but also Y^3+) was shown only for <2% of the total activity administered to human plasma.

[3] = Formation of ^90Y-yttrium complex, radiochemical yield by TLC/HPLC; type: physicochemical
Protocol: Purified DO3A-P^BnNH2 was dissolved in demineralised water at a concentration of 9×10^−5 mol/l. 0.1 ml of this solution were transferred into a small reaction vial (PE). 0.1 ml ^90Y-yttrium chloride (YCl3) in 0.1 M HCl and 0.1 ml ammonium acetate buffer, pH 5.7, were added. The reaction solutions were mixed well. pH values were measured continuously while preparing the solution. 24 identical solutions were prepared accordingly and stored at 25° C. and 37° C. respectively.
Samples were taken after 15 min, 30 min, 45 min, 60 min, 90 min and 120 min and analyzed by thin layer chromatography using silica gel (POLYGRAM SIL G/UV254) or, preferably, paper (Whatman No. 1) as solid phase. TLC was run using either solvent I: 0.1 N ammonium acetate solution or solvent II: 3% sodium chloride solution as developing solution. In parallel, samples (20 μl) were analyzed by gel filtration using HPLC. The HPLC-system comprised a gamma detector (Berthold LB 506) and a UV/VIS spectrometer (Waters 486) installed in two flow through cells, respectively.
Temperature- and time-dependent studies have shown a very short reaction time for the complex formation of a ^90Y-Yttrium-DO3A-complex.
Furthermore, the effect of pH and ligand concentration on radiochemical yield was evaluated. Table 5 summarizes the results relating to the variation of pH between pH 2.0 and pH 8.9 while maintaining a constant ratio of DO3A-P^BnNH2 and Y of 3:1 and a reaction time of 60 min at 25° C. Accordingly, best labeling results are achieved at pH values of 4.9-8.0. Table 6 summarizes the results relating to the variation of the ligand concentration DO3A-P^BnNH2: Y between 1:1 up to 7:1 while maintaining a constant pH range (pH 5.2) and reaction time of 60 min at 25° C.

[4] = as above; type: physicochemical; conditions: reaction time 0 min, [Y] = 1,2 · 10^−3 mol/l, ratio of ligand: Y = 1:1, pH = 5.5

Nc1ccc(CP(=O)([O-])CN2CCN(CC(=O)[O-])CCN(CC(=O)[O-])CCN(CC(=O)[O-])CC2)cc1.[88Y+3] [^88Y-DO3A-P^BnNH2 complex]
bound to plasma proteins (human plasma proteins; equilibration dialysis): 10.2±2.3% | bound to plasma proteins (human plasma proteins; ultrafiltration): 3.7±3.2% | Cumulative excretion of radioactivity ([1]; Faeces, interval 0-24 h after intravenous injection): 3.6 ± 2.8% | Cumulative excretion of radioactivity ([1]; Urine, interval 0-2 h after intravenous injection): 79.4 ± 5.2% | Cumulative excretion of radioactivity ([1]; Urine, interval 0-24 h after intravenous injection): 84.3 ± 5.0% | Dissociation of the radionuclide ^88Y-yttrium from the complex and binding to plasma proteins ([2]; human plasma at 37° C. over 14 days): < 2 % of the total activity administered to human plasma | Stability of the complex in human plasma ([2]; human plasma at 37° C. over 14 days, standardised in vitro conditions): highly stable; also recorded: high stability | High molecular weight form ([2]; Day 0, Experiment No. 1): 0.28% | Low molecular weight form ([2]; Day 0, Experiment No. 1): 99.72% | High molecular weight form ([2]; Day 0, Experiment No. 2): 0.10% | Low molecular weight form ([2]; Day 0, Experiment No. 2): 99.90% | High molecular weight form ([2]; Day 3, Experiment No. 1): 0.75% | Low molecular weight form ([2]; Day 3, Experiment No. 1): 99.25% | High molecular weight form ([2]; Day 3, Experiment No. 2): 0.56% | Low molecular weight form ([2]; Day 3, Experiment No. 2): 99.44% | High molecular weight form ([2]; Day 5, Experiment No. 1): 0.72% | Low molecular weight form ([2]; Day 5, Experiment No. 1): 99.28% | High molecular weight form ([2]; Day 5, Experiment No. 2): 0.91% | Low molecular weight form ([2]; Day 5, Experiment No. 2): 99.09% | High molecular weight form ([2]; Day 7, Experiment No. 1): 0.79% | Low molecular weight form ([2]; Day 7, Experiment No. 1): 99.21% | High molecular weight form ([2]; Day 7, Experiment No. 2): 0.73% | Low molecular weight form ([2]; Day 7, Experiment No. 2): 99.27% | High molecular weight form ([2]; Day 10, Experiment No. 1): 0.91% | Low molecular weight form ([2]; Day 10, Experiment No. 1): 99.09% | High molecular weight form ([2]; Day 10, Experiment No. 2): 1.08% | Low molecular weight form ([2]; Day 10, Experiment No. 2): 98.92% | High molecular weight form ([2]; Day 12, Experiment No. 1): 1.17% | Low molecular weight form ([2]; Day 12, Experiment No. 1): 98.83% | High molecular weight form ([2]; Day 12, Experiment No. 2): 1.35% | Low molecular weight form ([2]; Day 12, Experiment No. 2): 98.65% | High molecular weight form ([2]; Day 14, Experiment No. 1): 1.68% | Low molecular weight form ([2]; Day 14, Experiment No. 1): 98.32% | High molecular weight form ([2]; Day 14, Experiment No. 2): 1.80% | Low molecular weight form ([2]; Day 14, Experiment No. 2): 98.20%

Nc1ccc(CP(=O)([O-])CN2CCN(CC(=O)[O-])CCN(CC(=O)[O-])CCN(CC(=O)[O-])CC2)cc1.[90Y+3] [^90Y-DO3A-P^BnNH2-complex]
radiochemical yield ([3]; pH 2.0, [Y] = 1.5 · 10^−5 mol/l, ratio of ligand: Y = 3:1, reaction time 60 min, 25° C.): 12% | radiochemical yield ([3]; pH 3.0, [Y] = 1.5 · 10^−5 mol/l, ratio of ligand: Y = 3:1, reaction time 60 min, 25° C.): 54% | radiochemical yield ([3]; pH 3.9, [Y] = 1.5 · 10^−5 mol/l, ratio of ligand: Y = 3:1, reaction time 60 min, 25° C.): 77% | radiochemical yield ([3]; pH 4.4, [Y] = 1.5 · 10^−5 mol/l, ratio of ligand: Y = 3:1, reaction time 60 min, 25° C.): 93% | radiochemical yield ([3]; pH 4.9, [Y] = 1.5 · 10^−5 mol/l, ratio of ligand: Y = 3:1, reaction time 60 min, 25° C.): 97% | radiochemical yield ([3]; pH 5.6, [Y] = 1.5 · 10^−5 mol/l, ratio of ligand: Y = 3:1, reaction time 60 min, 25° C.): 95% | radiochemical yield ([3]; pH 6.0, [Y] = 1.5 · 10^−5 mol/l, ratio of ligand: Y = 3:1, reaction time 60 min, 25° C.): 93% | radiochemical yield ([3]; pH 6.2, [Y] = 1.5 · 10^−5 mol/l, ratio of ligand: Y = 3:1, reaction time 60 min, 25° C.): 97% | radiochemical yield ([3]; pH 6.6, [Y] = 1.5 · 10^−5 mol/l, ratio of ligand: Y = 3:1, reaction time 60 min, 25° C.): 98% | radiochemical yield ([3]; pH 6.8, [Y] = 1.5 · 10^−5 mol/l, ratio of ligand: Y = 3:1, reaction time 60 min, 25° C.): 98% | radiochemical yield ([3]; pH 8.0, [Y] = 1.5 · 10^−5 mol/l, ratio of ligand: Y = 3:1, reaction time 60 min, 25° C.): 98% | radiochemical yield ([3]; pH 8.9, [Y] = 1.5 · 10^−5 mol/l, ratio of ligand: Y = 3:1, reaction time 60 min, 25° C.): 91% | radiochemical yield ([3]; ratio of ligand:Y 1:1, [Y] = 1.2 · 10^−3 mol/l, pH = 5.2, reaction time 60 min, 25° C.): 94% | radiochemical yield ([3]; ratio of ligand:Y 2:1, [Y] = 1.2 · 10^−3 mol/l, pH = 5.2, reaction time 60 min, 25° C.): 97% | radiochemical yield ([3]; ratio of ligand:Y 3:1, [Y] = 1.2 · 10^−3 mol/l, pH = 5.2, reaction time 60 min, 25° C.): 98% | radiochemical yield ([3]; ratio of ligand:Y 4:1, [Y] = 1.2 · 10^−3 mol/l, pH = 5.2, reaction time 60 min, 25° C.): 99% | radiochemical yield ([3]; ratio of ligand:Y 5:1, [Y] = 1.2 · 10^−3 mol/l, pH = 5.2, reaction time 60 min, 25° C.): 97% | radiochemical yield ([3]; ratio of ligand:Y 6:1, [Y] = 1.2 · 10^−3 mol/l, pH = 5.2, reaction time 60 min, 25° C.): 99% | radiochemical yield ([3]; ratio of ligand:Y 7:1, [Y] = 1.2 · 10^−3 mol/l, pH = 5.2, reaction time 60 min, 25° C.): 97% | radiochemical yield ([3]; reaction time 15 min, 25° C., [Y] = 1,2 · 10^−3 mol/l, ratio of ligand: Y = 1:1, pH = 5.5): 97% | radiochemical yield ([3]; reaction time 15 min, 37° C., [Y] = 1,2 · 10^−3 mol/l, ratio of ligand: Y = 1:1, pH = 5.5): 98% | radiochemical yield ([3]; reaction time 30 min, 25° C., [Y] = 1,2 · 10^−3 mol/l, ratio of ligand: Y = 1:1, pH = 5.5): 97% | radiochemical yield ([3]; reaction time 30 min, 37° C., [Y] = 1,2 · 10^−3 mol/l, ratio of ligand: Y = 1:1, pH = 5.5): 98% | radiochemical yield ([3]; reaction time 45 min, 25° C., [Y] = 1,2 · 10^−3 mol/l, ratio of ligand: Y = 1:1, pH = 5.5): 97% | radiochemical yield ([3]; reaction time 45 min, 37° C., [Y] = 1,2 · 10^−3 mol/l, ratio of ligand: Y = 1:1, pH = 5.5): 98% | radiochemical yield ([3]; reaction time 60 min, 25° C., [Y] = 1,2 · 10^−3 mol/l, ratio of ligand: Y = 1:1, pH = 5.5): 97% | radiochemical yield ([3]; reaction time 60 min, 37° C., [Y] = 1,2 · 10^−3 mol/l, ratio of ligand: Y = 1:1, pH = 5.5): 97% | radiochemical yield ([3]; reaction time 90 min, 25° C., [Y] = 1,2 · 10^−3 mol/l, ratio of ligand: Y = 1:1, pH = 5.5): 98% | radiochemical yield ([3]; reaction time 90 min, 37° C., [Y] = 1,2 · 10^−3 mol/l, ratio of ligand: Y = 1:1, pH = 5.5): 98% | radiochemical yield ([3]; reaction time 120 min, 25° C., [Y] = 1,2 · 10^−3 mol/l, ratio of ligand: Y = 1:1, pH = 5.5): 98% | radiochemical yield ([3]; reaction time 120 min, 37° C., [Y] = 1,2 · 10^−3 mol/l, ratio of ligand: Y = 1:1, pH = 5.5): 99% | radiochemical yield ([4]; 25° C.): 88% | radiochemical yield ([4]; 37° C.): 88%
